Experimental data as given in paper PMC11892739, “Site-specific molecular glues for the 14-3-3/Tau pS214 protein–protein interaction via reversible covalent imine tethering” (RSC Medicinal Chemistry, 2025).

Target: T1, 14-3-3γ/Tau pS214 interaction (Homo sapiens, UniProt P61981)
T1 construct: made in house; host or cells: NiCo21 (DE3) E. coli
T1 sequence (P61981 1-247): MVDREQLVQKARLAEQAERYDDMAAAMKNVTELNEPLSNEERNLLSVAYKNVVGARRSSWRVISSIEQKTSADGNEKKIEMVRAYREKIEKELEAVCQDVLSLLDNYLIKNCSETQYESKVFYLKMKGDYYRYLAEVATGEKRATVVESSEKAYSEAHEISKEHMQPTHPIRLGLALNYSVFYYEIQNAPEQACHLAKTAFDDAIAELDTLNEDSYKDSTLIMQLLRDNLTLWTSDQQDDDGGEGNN
Assay: Fluorescence anisotropy 14-3-3γ titration with compound and monovalent Tau pS214 peptide
Type: binding
Settings: for apparent cooperativity factor (app. α), 14-3-3γ/Tau pS214: 2D titrations, 14-3-3γ titrated at varied compound concentrations, saturation of the ratio
Method: FA assays in which 14-3-3γ was titrated to a constant concentration of compound (250 μM) in the presence of the distinct monovalent Tau peptide (10 nM) were performed.
The determined stabilization factors are concentration-dependent (here 250 μM of compound) and might differ based on assay design. […] The app. α-factors of these compounds for both 14-3-3/Tau complexes were determined by 14-3-3γ titrations in the presence of varied concentrations of the particular compound (Fig. 5d and e). Both compounds reached saturation for both 14-3-3γ/Tau complexes enabling accurate determination of the α-factor. The app. α-factors of aldehydes 1 and 18 were plotted for both 14-3-3γ/Tau complexes to investigate phospho-binding site selective cooperativity (Fig. 5f and h). To do so, the stabilization factors at a given compound concentration were plotted against the compound concentration, leading to the determination of the app. α-factors. […]
chromatography (HisTrap high performance cartridges, Cytiva). Typically two 5 mL columns were used for a 2 L culture in which the lysate was loaded on the column, washed with 10 CV wash buffer (50 mM Hepes, pH 8.0, 300 mM NaCl, 25 mM imidazole, 2 mM βME), and eluted with several fractions (2-4 CV) of elution buffer (50 mM Hepes, pH 8.0, 300 mM NaCl, 250 mM imidazole, 2 mM βME). Fractions containing the 14-3-3 protein were combined and dialyzed into 25 mM HEPES pH 8.0, 200 mM NaCl, 10 mM MgCl2, 2 mM βME, followed by dialysis into 25 mM HEPES, 100 mM NaCl, 10 mM MgCl2, 500 μM TCEP (adjusted to pH 8.0). Dialyzed protein was concentrated to ∼40 mg/mL, analyzed by Q -Tof LC/MS, and aliquots were flash -frozen for storage at −80 °C. […]
0.1% (v/v) Tween20, 0.1% (w/v) BSA). Dilution series were made in polystyrene low -volume 384 -well plates (Corning #4514, Black Round Bottom). Measurements were performed directly after plate preparation, using a Tecan SPARK plate reader at room temperature ( λex: 485±20 nm; λem: 535±25 nm; mirror: automatic; flashes: 30; settle time: 1 ms; gain: optimal; Z -position: calculated from well). Wells containing only fluorescein labelled peptide were used to set as G -factor calibrated from these wells. All data were analyzed using GraphPad Prism (10.0.1) and fitted with a four -parameter logistic model (4PL) to determine binding affinities (dissociation constant, KD). All data shown is background corrected for the signal without 14 -3-3ζ and the mean and standard deviation of technical duplicate is plotted, assay performed in a scientific duplicate for hit compounds.
Fluorescence Anisotropy – 14-3-3 titrations in the presence of compound To characterize the affinity of the Tau peptides for 14-3-3 in the presence of compound, 14-3-3ζ or γ was titrated in a 2-fold dilution series starting at 400 (for the 14-3-3ζ titrations to Tau pS2) or 800 (for the 14-3-3γ titrations to Tau pS214 or pS324) µM. 14-3-3 was added to 10 nM of fluorescein-labeled peptide (Tau pS2, Tau pS214 or Tau pS324) in the presence of 250 µM compound (1% DMSO). The assays were performed in a similar way as described above. Data shown is the average and standard deviation of a technical duplicate, top plateau corrected where needed, assay performed in a scientific duplicate. […]
The peptide screen was performed in a similar way as the 14-3-3ζ titration in the precence of compound.
14-3-3ζ was titrated in a 2-fold dilution series (starting at 400 µM 14-3-3ζ) to 100 nM of fluorescein-labeled peptides and 250 µM compound 18 (1% DMSO) in FA buffer (10 mM HEPES pH 7.4, 150 mM […]
Data shown is the average of a scientific triplicate. […]
DSF was performed using 40 µl samples containing 2.5 µM 14 -3-3ζ, 25 µM Tau peptide (Tau pS2, Tau pS214 or Tau pS324), […] (1% DMSO) and 5x ProteoOrange (Lumiprobe, 5000x stock in DMSO) in 10 mM HEPES, 150 mM NaCl, 50 µM TCEP (pH 7.4). The samples were heated from 35 °C to 79°C at a rate of 0.3 °C per 15 s in a C FX96 Touch Real-Time PCR Detection System (Bio -Rad). Fluorescence […]

Compound	SF250μM for the 14-3-3γ/Tau pS214 complex (250 μM compound, 10 nM Tau pS214 peptide, internal DMSO reference)	apparent cooperativity factor (app. α), 14-3-3γ/Tau pS214
CCc1ccc(-c2nccn2-c2ccc(C=O)c(Br)c2)cc1 [Compound 18]	8.6	10.2
O=Cc1ccc(-n2ccnc2-c2ccccc2)cc1Br [Compound 1]		3.8
